Read-outs that look alike come from different tables or passages of the source.
How the values were obtained:
BVDV (NADL strain) [1] = format: cell-based, Bovine viral diarrhea virus
MDBK cells = experiment: Cytotoxicity (MTT) in MDBK cells; format: cell-based
Procedure: (§1) Compound toxicity assay. Compound cytotoxicity was assessed by using an MTT based toxicity assay kit (Sigma, St. Louis, Mo.) as described elsewhere. Briefly, cells cultured under conditions identical to those used in the viral assay were incubated with various concentrations of the compound for 72 hours. MTT was added to the media to a final concentration of 0.5 mg/ml and was incubated for 3 hours at 37 C. After the culture media was removed, formazan crystals was dissolved by adding 150 ul of solubilization solution (10% Triton X-100, 0.1N HCl in anhydrous isopropanol) for 15-30 minutes. The absorbance of the dissolved formazan was measured spectrophotometrically at 570 nm with absorbance at 690 nm as background.

[2] = tested on: Dengue virus (DV) serotype 2, New Guinea C; experiment: microbe, parasite or virus in culture; format: cell-based
Ebola (Zaire strain) = format: cell-based, Ebola virus
[3] = tested on: Tacaribe virus (21573 strain); format: cell-based
[4] = tested on: Junin virus (JUNV, Romero strain); format: cell-based
BHK cells = experiment: Cytotoxicity (MTT) in BHK cells; format: cell-based
Procedure: as §1

HCV = HCV infection, intracellular HCV RNA level by real-time RT-PCR; format: cell-based, hepatitis C virus; settings: for EC50: read-out: EC50 against HCV infection; for EC90: read-out: EC90 against HCV infection
Text: Another embodiment of the present invention is the use of imino sugar glucosidase inhibitors in the treatment of HCV. Imino sugar glucosidase inhibitors show equal or better efficacy than celgosivir.

[5] = Cytotoxicity (CC50) in the HCV infection test; format: cell-based; settings: Table 3, HCV infection test
[6] = in vivo, po, 100 mg/kg
[7] = tested on: West Nile virus (2002 Texas isolate); experiment: microbe, parasite or virus in culture; format: cell-based
[8] = Cytotoxicity (MTT) in BHK cells; format: cell-based; settings: hamster; BHK cells (for Dengue and West Nile virus), 3 days treatment
Procedure: as §1

BVDV (NADL strain) [9] = settings: tissue culture, test viruses such as BVDV and DV; cited from earlier work
[10] = BHK cells (for Dengue and West Nile virus), 3 days treatment, read-out: CC50
[11] = Table 5, read-out: CC50 in BHK cells

| Compound | EC50 (BVDV (NADL strain) [1]) | EC90 (BVDV (NADL strain) [1]) | CC50 (MDBK cells) | EC50 ([2]; read-out: DV EC50) | EC90 ([2]; read-out: DV EC90) | EC50 ([2]; read-out: Dengue EC50) | EC90 ([2]; read-out: Dengue EC90) | EC50 (Ebola (Zaire strain)) | EC90 (Ebola (Zaire strain)) | EC50 [3] | EC90 [3] | EC50 [4] | EC90 [4] | CC50 (BHK cells; [10]) | CC50 (BHK cells; [11]) | EC50 (HCV) | EC90 (HCV) | CC50 [5] | CC50 (vero cells) | EC50 ([7]; read-out: West Nile EC50) | further results |
| --- | --- | --- | --- | --- | --- | --- | --- | --- | --- | --- | --- | --- | --- | --- | --- | --- | --- | --- | --- | --- | --- |
| CC(=O)O.OC[C@@H]1[C@@H](O)[C@H](O)[C@@H](O)CN1CCCCCCC1(O)CCCCC1 [CM-9-70] | 18 µM | 82.5 µM | > 500 µM |  |  |  |  |  |  |  |  |  |  |  |  |  |  |  |  |  | anti-BVDV activity (BVDV (NADL strain) [1]): retains similar antiviral activity |
| CC(=O)O.CC1CCC(OCCCCCCN2C[C@H](O)[C@@H](O)[C@H](O)[C@H]2CO)CC1 (stereo partly shown) [CM-9-78] | 8.1 ± 3.4 µM | 59 ± 22 µM | > 500 µM | 6.75 µM | 13 µM | 6.8 µM | 13 µM | 7.5 µM | > 100 µM | 10 µM | > 100 µM | 2 µM | > 100 µM | > 100 µM | > 40 µM | 5 µM | 160 µM | > 500 µM | > 500 µM |  | plasma concentration [6]: above 30 μM |
| O[C@H]1[C@H](O)[C@@H](O)CN2CC[C@H](O)[C@H]12 [Castano., Castanospermin] |  |  |  |  |  |  |  |  |  |  |  |  |  |  |  | 295 µM | > 500 µM | > 500 µM |  |  |  |
| CCCC(=O)O[C@H]1CN2CC[C@H](O)[C@@H]2[C@@H](O)[C@@H]1O [Celgosivir, celgosivir] |  |  |  |  |  |  |  |  |  |  |  |  |  |  |  |  |  | > 500 µM |  |  | EC50 (HCV; Hepatitis C virus): 3.8 µM; EC90 (HCV; Hepatitis C virus): 100 µM |
| OC[C@H]1NC[C@H](O)[C@@H](O)[C@@H]1O [DNJ, deoxynojirimycin, reference compound] |  |  |  |  |  |  |  |  |  |  |  |  |  |  |  |  |  |  |  |  | EC50 ([2]; Dengue virus, BHK, read-out: Dengue EC50): 500 µM; EC50 ([7]; West Nile virus, BHK, read-out: West Nile EC50): > 500 µM; CC50 at 72 h [8]: 20 to 100 µM |
| CCCCN1C[C@H](O)[C@@H](O)[C@H](O)[C@H]1CO [NBDNJ, N-butyl-DNJ, reference compound] |  |  |  |  |  |  |  |  |  |  |  |  |  | 20 to 100 µM |  |  |  |  |  | > 100 µM |  |
| CCCCCCCCCN1C[C@H](O)[C@@H](O)[C@H](O)[C@H]1CO [NNDNJ, N-nonyl-DNJ, reference compound] | 7.3 ± 0.4 µM | 71 ± 7.1 µM | 245 ± 134 µM |  |  | 1 to 4 µM | 3 to 10 µM | 12 µM | 85 µM | 3 µM | 70 µM | 0.7 µM | > 100 µM | 20 to 100 µM |  | 2.5 µM | > 500 µM | 280 µM | 100 µM | 4 µM | potency compared with DNJ or short alkyl side chain DNJ derivatives such as NBDNJ (BVDV (NADL strain) [9]): 100 times |
| OC[C@@H]1[C@@H](O)[C@H](O)[C@@H](O)CN1CCCCCC1(O)CCCCC1 [OSL95-II, N-pentyl-(1-hydroxycyclohexyl)-DNJ, reference compound] | 10.9 ± 2.7 µM | > 100 µM | > 500 µM | 4 µM | 8.7 µM | 4 µM | 8.7 µM | 0.6 µM | 8 µM | 29 µM | > 100 µM | 0.75 µM | 68 µM | > 100 µM | > 100 µM | 6 µM | 125 µM | > 500 µM | > 500 µM | 4.5 µM | EC50 ([7]; read-out: WNV EC50): 4.5 µM |
| CC(C)[C@@H]1CC[C@@H](C)C[C@H]1OCCCCCCN1C[C@H](O)[C@@H](O)[C@H](O)[C@H]1CO [PBDNJ0801] | 1.6 ± 1.2 µM | 14.8 ± 3.9 µM | 235 ± 21 µM | 0.1 µM | 0.2 µM | 0.1 µM | 0.2 µM |  |  |  |  |  |  | 80 µM | 70 µM |  |  |  |  | 4.75 µM | EC50 ([7]; read-out: WNV EC50): 4.75 µM; EC90 ([7]; read-out: WNV EC90): 19 µM; EC90 ([7]; read-out: West Nile EC90): 19 µM |
| Cc1ccc(C)c(OCCCCCCN2C[C@H](O)[C@@H](O)[C@H](O)[C@H]2CO)c1 [PBDNJ0803] | 3.7 ± 3.8 µM | 29.2 ± 29 µM | 485 ± 21 µM | 0.1 µM | 0.6 µM | 0.1 µM | 0.6 µM |  |  | 2 µM | 75 µM | 0.5 µM | 2 µM | 85 µM | 75 µM |  |  |  | 300 µM | 1.5 µM | EC50 ([7]; read-out: WNV EC50): 1.5 µM; EC90 ([7]; read-out: WNV EC90): 20 µM; EC90 ([7]; read-out: West Nile EC90): 20 µM; antiviral activity against Junin virus infection [4]: most potent |
| C[C@@H]1CCCCC1OCCCCCCN1C[C@H](O)[C@@H](O)[C@H](O)[C@H]1CO (stereo partly shown) [PBDNJ0804] | 3 ± 1.4 µM | 13 ± 1.7 µM | > 500 µM | 0.075 µM | 0.6 µM | 0.08 µM | 0.6 µM | 0.5 µM | 5 µM | 1.5 µM | 50 µM | 0.45 µM | 0.9 µM | 65 µM | 70 µM |  |  |  | 500 µM | 3.5 µM | EC50 ([7]; read-out: WNV EC50): 3.5 µM; EC90 ([7]; read-out: WNV EC90): 33 µM; EC90 ([7]; read-out: West Nile EC90): 33 µM; antiviral activity against Junin virus infection [4]: most potent |
